Reference: the kinase profiling compilation of Christmann-Franck et al. (2016)

Key:
Test in all cases: KINOMEscan competition binding
Details in all cases: compound 10.0 µM
ACVR2A (human) = ACVR2A (human) (UniProt P27037)
AURKB (human) = AURKB (human) (UniProt Q96GD4)
CAMK1G (human) = CAMK1G (human) (UniProt Q96NX5)
CDK16 (human) = CDK16 (human) (UniProt Q00536)
CDK19 (human) = CDK19 (human) (UniProt Q9BWU1)
CDK8 (human) = CDK8 (human) (UniProt P49336)
CSNK1G2 (human) = CSNK1G2 (human) (UniProt P78368)
CSNK2A1 (human) = CSNK2A1 (human) (UniProt P68400)
DMPK (human) = DMPK (human) (UniProt Q09013)
EIF2AK2 (human) = EIF2AK2 (human) (UniProt P19525)
[1] = tested on: EIF2AK4 KD2 (human), Q9P2K8 [S808G]
EPHB1 (human) = EPHB1 (human) (UniProt P54762)
FGR (human) = FGR (human) (UniProt P09769)
FLT1 (human) = FLT1 (human) (UniProt P17948)
IRAK3 (human) = IRAK3 (human) (UniProt Q9Y616)
KDR (human) = KDR (human) (UniProt P35968)
[2] = tested on: KIT (human), P10721 [V559D]
MAP2K1 (human) = MAP2K1 (human) (UniProt Q02750)
MAP2K2 (human) = MAP2K2 (human) (UniProt P36507)
MAP2K6 (human) = MAP2K6 (human) (UniProt P52564)
MAP4K3 (human) = MAP4K3 (human) (UniProt Q8IVH8)
NEK6 (human) = NEK6 (human) (UniProt Q9HC98)
NEK9 (human) = NEK9 (human) (UniProt Q8TD19)
NTRK2 (human) = NTRK2 (human) (UniProt Q16620)
PAK1 (human) = PAK1 (human) (UniProt Q13153)
PDGFRA (human) = PDGFRA (human) (UniProt P16234)
PIP4K2B (human) = PIP4K2B (human) (UniProt P78356)
PRKAA2 (human) = PRKAA2 (human) (UniProt P54646)
PRKCD (human) = PRKCD (human) (UniProt Q05655)
RIOK2 (human) = RIOK2 (human) (UniProt Q9BVS4)
RIPK2 (human) = RIPK2 (human) (UniProt O43353)
RPS6KA1 KD1 (human) = RPS6KA1 KD1 (human) (UniProt Q15418)
RPS6KA1 KD2 (human) = RPS6KA1 KD2 (human) (UniProt Q15418)
RPS6KA4 KD2 (human) = RPS6KA4 KD2 (human) (UniProt O75676)
SGK110 (human) = SGK110 (human) (UniProt P0C264)
STK17A (human) = STK17A (human) (UniProt Q9UEE5)
STK33 (human) = STK33 (human) (UniProt Q9BYT3)
TTK (human) = TTK (human) (UniProt P33981)
WEE2 (human) = WEE2 (human) (UniProt P0C1S8)
ULK2 (human) = ULK2 (human) (UniProt Q8IYT8)

ACVR2A (human), sequence (P27037 whole entry, looked up): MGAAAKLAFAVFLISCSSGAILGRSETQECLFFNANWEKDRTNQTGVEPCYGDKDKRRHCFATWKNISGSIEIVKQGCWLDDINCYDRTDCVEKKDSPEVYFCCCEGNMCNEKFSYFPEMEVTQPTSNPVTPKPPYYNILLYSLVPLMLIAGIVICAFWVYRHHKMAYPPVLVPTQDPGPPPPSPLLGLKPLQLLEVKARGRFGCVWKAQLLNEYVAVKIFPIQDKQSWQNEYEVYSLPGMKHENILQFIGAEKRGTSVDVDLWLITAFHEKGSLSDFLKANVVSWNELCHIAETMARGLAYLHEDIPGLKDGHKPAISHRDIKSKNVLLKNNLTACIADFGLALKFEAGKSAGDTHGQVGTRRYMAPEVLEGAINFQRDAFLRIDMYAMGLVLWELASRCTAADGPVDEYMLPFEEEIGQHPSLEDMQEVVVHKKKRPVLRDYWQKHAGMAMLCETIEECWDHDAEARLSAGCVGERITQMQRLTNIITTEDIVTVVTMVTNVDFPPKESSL
SGK110 (human), sequence (P0C264 whole entry, looked up): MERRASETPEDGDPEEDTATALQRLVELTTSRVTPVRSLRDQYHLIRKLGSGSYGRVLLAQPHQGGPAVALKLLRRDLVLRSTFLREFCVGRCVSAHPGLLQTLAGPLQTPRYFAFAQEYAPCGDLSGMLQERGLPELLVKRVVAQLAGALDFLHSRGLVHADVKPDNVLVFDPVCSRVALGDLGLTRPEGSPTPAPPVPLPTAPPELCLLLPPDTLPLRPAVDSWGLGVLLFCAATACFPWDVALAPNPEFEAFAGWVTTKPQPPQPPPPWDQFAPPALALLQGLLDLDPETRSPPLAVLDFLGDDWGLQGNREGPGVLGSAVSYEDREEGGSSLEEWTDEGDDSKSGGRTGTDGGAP
KIT (human), P10721 [V559D], sequence (P10721 whole entry V559D, looked up): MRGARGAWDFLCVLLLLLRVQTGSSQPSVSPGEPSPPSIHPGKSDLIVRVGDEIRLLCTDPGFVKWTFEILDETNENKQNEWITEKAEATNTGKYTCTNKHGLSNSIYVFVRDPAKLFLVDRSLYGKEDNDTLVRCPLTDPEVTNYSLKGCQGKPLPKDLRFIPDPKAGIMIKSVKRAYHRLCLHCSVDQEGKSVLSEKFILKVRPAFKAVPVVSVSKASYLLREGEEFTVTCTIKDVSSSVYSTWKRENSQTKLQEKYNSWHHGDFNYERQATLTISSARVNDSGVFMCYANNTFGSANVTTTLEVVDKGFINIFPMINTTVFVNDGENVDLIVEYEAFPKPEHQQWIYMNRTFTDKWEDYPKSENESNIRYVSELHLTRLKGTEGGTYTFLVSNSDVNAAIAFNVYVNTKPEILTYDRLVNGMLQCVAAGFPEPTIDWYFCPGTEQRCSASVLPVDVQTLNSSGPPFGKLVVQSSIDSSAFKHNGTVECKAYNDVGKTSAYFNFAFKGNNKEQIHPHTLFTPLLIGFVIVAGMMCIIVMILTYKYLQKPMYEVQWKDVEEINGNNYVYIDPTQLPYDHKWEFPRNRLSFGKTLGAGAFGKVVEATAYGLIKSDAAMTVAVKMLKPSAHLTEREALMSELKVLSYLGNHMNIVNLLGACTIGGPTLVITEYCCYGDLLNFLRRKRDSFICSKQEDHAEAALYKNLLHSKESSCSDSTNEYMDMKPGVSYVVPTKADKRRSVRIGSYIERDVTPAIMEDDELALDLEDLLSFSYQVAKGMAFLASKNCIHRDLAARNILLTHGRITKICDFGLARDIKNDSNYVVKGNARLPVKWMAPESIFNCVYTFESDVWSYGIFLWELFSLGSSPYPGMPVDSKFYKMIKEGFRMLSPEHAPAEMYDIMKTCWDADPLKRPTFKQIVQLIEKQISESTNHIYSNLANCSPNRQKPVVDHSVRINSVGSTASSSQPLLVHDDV
EIF2AK4 KD2 (human), Q9P2K8 [S808G], sequence (Q9P2K8 whole entry S808G, looked up): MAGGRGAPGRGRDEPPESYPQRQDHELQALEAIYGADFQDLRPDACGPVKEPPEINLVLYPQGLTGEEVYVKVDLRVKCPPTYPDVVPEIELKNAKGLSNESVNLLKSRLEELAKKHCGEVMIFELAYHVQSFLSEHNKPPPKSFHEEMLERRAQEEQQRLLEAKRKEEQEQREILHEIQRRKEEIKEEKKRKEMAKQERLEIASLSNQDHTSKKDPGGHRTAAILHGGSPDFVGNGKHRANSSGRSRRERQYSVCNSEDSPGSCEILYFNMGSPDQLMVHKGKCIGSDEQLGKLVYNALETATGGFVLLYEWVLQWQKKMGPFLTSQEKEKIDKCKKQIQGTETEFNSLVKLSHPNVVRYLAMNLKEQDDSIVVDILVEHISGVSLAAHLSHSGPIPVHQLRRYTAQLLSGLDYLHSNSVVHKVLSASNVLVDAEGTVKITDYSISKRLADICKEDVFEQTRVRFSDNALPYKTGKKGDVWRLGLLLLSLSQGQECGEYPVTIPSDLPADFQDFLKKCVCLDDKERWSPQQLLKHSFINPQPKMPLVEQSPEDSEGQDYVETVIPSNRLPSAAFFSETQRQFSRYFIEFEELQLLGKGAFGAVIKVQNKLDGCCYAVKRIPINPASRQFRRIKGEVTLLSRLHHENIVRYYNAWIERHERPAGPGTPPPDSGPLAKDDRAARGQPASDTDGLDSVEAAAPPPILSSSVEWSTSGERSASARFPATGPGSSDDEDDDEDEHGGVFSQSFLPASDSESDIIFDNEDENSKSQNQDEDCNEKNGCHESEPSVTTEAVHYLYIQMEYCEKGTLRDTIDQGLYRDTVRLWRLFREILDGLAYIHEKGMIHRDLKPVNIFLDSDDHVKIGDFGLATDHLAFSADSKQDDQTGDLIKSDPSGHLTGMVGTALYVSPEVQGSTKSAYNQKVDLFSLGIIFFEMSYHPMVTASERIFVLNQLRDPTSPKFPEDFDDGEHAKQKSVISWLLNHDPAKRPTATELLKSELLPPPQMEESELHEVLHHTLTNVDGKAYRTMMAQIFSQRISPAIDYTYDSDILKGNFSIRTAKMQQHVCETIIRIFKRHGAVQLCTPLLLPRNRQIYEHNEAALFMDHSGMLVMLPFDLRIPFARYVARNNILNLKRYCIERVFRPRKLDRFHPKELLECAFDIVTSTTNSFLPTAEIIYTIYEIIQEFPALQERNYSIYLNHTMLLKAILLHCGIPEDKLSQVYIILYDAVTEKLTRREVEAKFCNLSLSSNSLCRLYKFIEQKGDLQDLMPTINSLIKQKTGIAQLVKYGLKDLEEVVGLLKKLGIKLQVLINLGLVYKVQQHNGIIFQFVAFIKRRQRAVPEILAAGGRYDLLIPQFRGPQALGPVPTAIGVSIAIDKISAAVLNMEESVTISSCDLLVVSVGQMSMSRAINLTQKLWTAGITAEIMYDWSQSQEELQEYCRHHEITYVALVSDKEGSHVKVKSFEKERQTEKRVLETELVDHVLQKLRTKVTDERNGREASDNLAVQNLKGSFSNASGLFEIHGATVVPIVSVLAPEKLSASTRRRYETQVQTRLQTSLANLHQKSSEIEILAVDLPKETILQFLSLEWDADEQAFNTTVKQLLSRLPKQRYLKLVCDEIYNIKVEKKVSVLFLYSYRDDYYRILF
DMPK (human), sequence (Q09013 whole entry, looked up): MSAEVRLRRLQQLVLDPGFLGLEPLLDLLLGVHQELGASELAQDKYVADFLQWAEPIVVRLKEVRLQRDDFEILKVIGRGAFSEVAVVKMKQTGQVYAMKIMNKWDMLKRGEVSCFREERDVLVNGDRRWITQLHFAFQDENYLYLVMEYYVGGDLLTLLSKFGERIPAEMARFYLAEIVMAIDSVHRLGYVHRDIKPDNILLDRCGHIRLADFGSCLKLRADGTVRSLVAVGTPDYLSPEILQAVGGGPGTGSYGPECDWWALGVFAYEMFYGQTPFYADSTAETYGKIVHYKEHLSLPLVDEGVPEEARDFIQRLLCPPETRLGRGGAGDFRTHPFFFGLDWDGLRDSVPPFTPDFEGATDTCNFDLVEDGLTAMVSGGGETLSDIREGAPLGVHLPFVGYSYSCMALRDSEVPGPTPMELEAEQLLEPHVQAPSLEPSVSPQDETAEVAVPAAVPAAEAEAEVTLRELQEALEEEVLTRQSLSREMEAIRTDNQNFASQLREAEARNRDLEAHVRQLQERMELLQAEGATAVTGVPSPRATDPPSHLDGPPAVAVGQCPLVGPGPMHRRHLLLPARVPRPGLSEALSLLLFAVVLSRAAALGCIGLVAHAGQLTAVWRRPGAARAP
CDK16 (human), sequence (Q00536 whole entry, looked up): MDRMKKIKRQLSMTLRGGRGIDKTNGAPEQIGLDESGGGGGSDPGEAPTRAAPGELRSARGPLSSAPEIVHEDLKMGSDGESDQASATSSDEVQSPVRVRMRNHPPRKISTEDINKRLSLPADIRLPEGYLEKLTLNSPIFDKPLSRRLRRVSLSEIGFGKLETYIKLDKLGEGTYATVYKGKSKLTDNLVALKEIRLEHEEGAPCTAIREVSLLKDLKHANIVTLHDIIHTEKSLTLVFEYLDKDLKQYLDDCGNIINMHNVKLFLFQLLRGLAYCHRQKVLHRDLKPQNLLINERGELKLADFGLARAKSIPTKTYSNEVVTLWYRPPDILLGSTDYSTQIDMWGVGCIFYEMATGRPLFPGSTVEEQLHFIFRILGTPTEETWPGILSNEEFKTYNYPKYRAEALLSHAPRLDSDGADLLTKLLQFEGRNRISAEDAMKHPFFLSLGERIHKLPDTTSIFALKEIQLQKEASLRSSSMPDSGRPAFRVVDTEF
CSNK1G2 (human), sequence (P78368 whole entry, looked up): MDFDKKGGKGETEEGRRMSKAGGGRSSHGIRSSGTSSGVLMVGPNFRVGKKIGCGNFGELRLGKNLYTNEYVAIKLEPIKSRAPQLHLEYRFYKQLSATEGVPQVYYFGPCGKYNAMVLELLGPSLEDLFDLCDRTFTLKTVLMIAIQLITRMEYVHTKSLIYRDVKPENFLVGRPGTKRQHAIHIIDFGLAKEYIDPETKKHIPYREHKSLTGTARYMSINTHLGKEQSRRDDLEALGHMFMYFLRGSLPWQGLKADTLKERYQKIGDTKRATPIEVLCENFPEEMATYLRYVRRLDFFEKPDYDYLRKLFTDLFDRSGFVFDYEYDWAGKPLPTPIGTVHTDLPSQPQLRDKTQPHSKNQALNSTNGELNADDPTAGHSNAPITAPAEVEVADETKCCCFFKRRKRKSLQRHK

Structure (SMILES)	kinase still bound, per cent of control (ACVR2A (human)) [%]	kinase still bound, per cent of control (AURKB (human)) [%]	kinase still bound, per cent of control (CAMK1G (human)) [%]	kinase still bound, per cent of control (CDK16 (human)) [%]	kinase still bound, per cent of control (CDK19 (human)) [%]	kinase still bound, per cent of control (CDK8 (human)) [%]	kinase still bound, per cent of control (CSNK1G2 (human)) [%]	kinase still bound, per cent of control (CSNK2A1 (human)) [%]	kinase still bound, per cent of control (DMPK (human)) [%]	kinase still bound, per cent of control (EIF2AK2 (human)) [%]	kinase still bound, per cent of control [1] [%]	kinase still bound, per cent of control (EPHB1 (human)) [%]	kinase still bound, per cent of control (FGR (human)) [%]	kinase still bound, per cent of control (FLT1 (human)) [%]	kinase still bound, per cent of control (IRAK3 (human)) [%]	kinase still bound, per cent of control (KDR (human)) [%]	kinase still bound, per cent of control [2] [%]	kinase still bound, per cent of control (MAP2K2 (human)) [%]	kinase still bound, per cent of control (MAP2K6 (human)) [%]	kinase still bound, per cent of control (MAP4K3 (human)) [%]	further results
C[C@@H](Oc1cc(-n2cnc3ccc(CN4CCN(C)CC4)cc32)sc1C(N)=O)c1ccccc1C(F)(F)F	100	80	58	100	100	95	97	13	63	76	29	99	82	100	38	100	38	79	98	59	kinase still bound, per cent of control (MAP2K1 (human)): 92%; kinase still bound, per cent of control (NEK6 (human)): 95%; kinase still bound, per cent of control (NEK9 (human)): 10%; kinase still bound, per cent of control (NTRK2 (human)): 68%; kinase still bound, per cent of control (PAK1 (human)): 100%; kinase still bound, per cent of control (PDGFRA (human)): 100%; kinase still bound, per cent of control (PIP4K2B (human)): 5.8%; kinase still bound, per cent of control (PRKAA2 (human)): 80%; kinase still bound, per cent of control (PRKCD (human)): 22%; kinase still bound, per cent of control (RIOK2 (human)): 65%; kinase still bound, per cent of control (RIPK2 (human)): 92%; kinase still bound, per cent of control (RPS6KA1 KD1 (human)): 29%; kinase still bound, per cent of control (RPS6KA1 KD2 (human)): 71%; kinase still bound, per cent of control (RPS6KA4 KD2 (human)): 0.55%; kinase still bound, per cent of control (SGK110 (human)): 100%; kinase still bound, per cent of control (STK17A (human)): 100%; kinase still bound, per cent of control (STK33 (human)): 75%; kinase still bound, per cent of control (TTK (human)): 95%; kinase still bound, per cent of control (WEE2 (human)): 83%
O=C(NOC[C@H](O)CO)c1ccc(F)c(F)c1Nc1ccc(I)cc1F	80	99	100	100	100	100	95	77	90	100	84	100	95	94	100	84	74	0.2	100	87	kinase still bound, per cent of control (NEK6 (human)): 100%; kinase still bound, per cent of control (NEK9 (human)): 82%; kinase still bound, per cent of control (NTRK2 (human)): 100%; kinase still bound, per cent of control (PAK1 (human)): 100%; kinase still bound, per cent of control (PDGFRA (human)): 96%; kinase still bound, per cent of control (PIP4K2B (human)): 100%; kinase still bound, per cent of control (PRKAA2 (human)): 97%; kinase still bound, per cent of control (PRKCD (human)): 100%; kinase still bound, per cent of control (RIPK2 (human)): 66%; kinase still bound, per cent of control (RPS6KA1 KD1 (human)): 100%; kinase still bound, per cent of control (RPS6KA1 KD2 (human)): 84%; kinase still bound, per cent of control (RPS6KA4 KD2 (human)): 100%; kinase still bound, per cent of control (SGK110 (human)): 100%; kinase still bound, per cent of control (STK17A (human)): 100%; kinase still bound, per cent of control (STK33 (human)): 79%; kinase still bound, per cent of control (TTK (human)): 100%; kinase still bound, per cent of control (ULK2 (human)): 97%; kinase still bound, per cent of control (WEE2 (human)): 77%
OCCCNc1cc(-c2ccnc(Nc3cccc(Cl)c3)n2)ccn1	100	100	100	1.9	100	100	100	100	100	100	100	100	100	100	100	100	100	100	100	100	kinase still bound, per cent of control (MAP2K1 (human)): 100%; kinase still bound, per cent of control (NEK6 (human)): 100%; kinase still bound, per cent of control (NEK9 (human)): 100%; kinase still bound, per cent of control (NTRK2 (human)): 100%; kinase still bound, per cent of control (PAK1 (human)): 100%; kinase still bound, per cent of control (PDGFRA (human)): 100%; kinase still bound, per cent of control (PIP4K2B (human)): 100%; kinase still bound, per cent of control (PRKAA2 (human)): 100%; kinase still bound, per cent of control (PRKCD (human)): 100%; kinase still bound, per cent of control (RIOK2 (human)): 100%; kinase still bound, per cent of control (RIPK2 (human)): 100%; kinase still bound, per cent of control (RPS6KA1 KD1 (human)): 100%; kinase still bound, per cent of control (RPS6KA1 KD2 (human)): 100%; kinase still bound, per cent of control (RPS6KA4 KD2 (human)): 100%; kinase still bound, per cent of control (SGK110 (human)): 100%; kinase still bound, per cent of control (STK17A (human)): 100%; kinase still bound, per cent of control (TTK (human)): 100%; kinase still bound, per cent of control (ULK2 (human)): 100%; kinase still bound, per cent of control (WEE2 (human)): 100%
Cc1cc([C@@H](C)Nc2ccccc2C(=O)O)c2nc(N3CCOCC3)cc(=O)n2c1	94	96	91	100	91	79	88	100	100	99	100	98	95	83	58	100	91	100	92	88	kinase still bound, per cent of control (MAP2K1 (human)): 89%; kinase still bound, per cent of control (NEK6 (human)): 100%; kinase still bound, per cent of control (NEK9 (human)): 100%; kinase still bound, per cent of control (PAK1 (human)): 100%; kinase still bound, per cent of control (PDGFRA (human)): 84%; kinase still bound, per cent of control (PIP4K2B (human)): 100%; kinase still bound, per cent of control (PRKAA2 (human)): 88%; kinase still bound, per cent of control (PRKCD (human)): 82%; kinase still bound, per cent of control (RIOK2 (human)): 54%; kinase still bound, per cent of control (RIPK2 (human)): 94%; kinase still bound, per cent of control (RPS6KA1 KD1 (human)): 73%; kinase still bound, per cent of control (RPS6KA1 KD2 (human)): 84%; kinase still bound, per cent of control (RPS6KA4 KD2 (human)): 100%; kinase still bound, per cent of control (SGK110 (human)): 100%; kinase still bound, per cent of control (STK17A (human)): 98%; kinase still bound, per cent of control (STK33 (human)): 100%; kinase still bound, per cent of control (TTK (human)): 100%; kinase still bound, per cent of control (ULK2 (human)): 100%; kinase still bound, per cent of control (WEE2 (human)): 100%
